Reference: paper PMC12784406, “IscS Kinetics in Native Mass Spectrometry Buffers Reveal Key Physiochemical Properties that Influence Enzyme Activity” (Journal of the American Society for Mass Spectrometry, 2025)

Molecular target: T1, IscS (Escherichia coli, UniProt P0A6B7)
T1 construct: pET vector, expressed in E. coli BL21(DE3), HisTrap Ni-NTA and Sephacryl S-300 purified; homodimer
Assay: methylene blue sulfide detection assay, […] nm, anaerobic
Format: biochemical
Settings: 50 mM Tris/150 mM NaCl, pH 8.5, 37 °C, 4 mM DTT; IscS 0.5 uM, without IscU; L-cysteine varied

T1 sequence (P0A6B7 whole entry): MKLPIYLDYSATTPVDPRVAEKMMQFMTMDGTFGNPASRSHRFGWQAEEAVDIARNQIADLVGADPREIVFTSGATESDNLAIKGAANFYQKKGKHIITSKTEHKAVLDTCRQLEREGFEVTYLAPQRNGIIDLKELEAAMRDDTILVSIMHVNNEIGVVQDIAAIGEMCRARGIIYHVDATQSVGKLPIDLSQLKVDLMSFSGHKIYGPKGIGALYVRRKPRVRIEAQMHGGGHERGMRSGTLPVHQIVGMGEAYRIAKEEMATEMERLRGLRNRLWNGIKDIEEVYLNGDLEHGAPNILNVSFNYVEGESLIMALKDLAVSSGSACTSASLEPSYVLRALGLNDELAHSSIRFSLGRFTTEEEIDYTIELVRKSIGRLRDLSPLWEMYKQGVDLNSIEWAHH

Question: N[C@@H](CS)C(=O)O [L-cysteine] was tested. Which “methylene blue sulfide detection assay, 670 nm, anaerobic” value did it give?
Answer: Sulfide production was quantitated at different L-cysteine concentrations to determine the k cat values
